Like-named read-outs stand apart in the source and are kept apart here.
Key:
[1] = in vivo; settings: mouse, in vivo, mice
[2] = test system: dopamine-β-hydroxylase; settings: literature, cited from earlier work; for dopamine-β-hydroxylase inhibiting effects, in words / duration of dopamine-β-hydroxylase inhibiting effect, in words: known compounds
[3] = test system: dopamine-β-hydroxylase; experiment: Noradrenaline and dopamine levels of the cerebrum (brain) in rats, % of controls; assay type: in vivo, male Wistar rats; settings: rat, i.p., 400 mg/kg, time not given
Description: (§1) The dopamine-β-hydroxylase inhibiting effects of the new compounds according to the invention were examined by the following tests:
(§2) The tests were performed on male Wistar rats weighing 150 to 200 g. The dopamine-β-hydroxylase inhibiting effects of the compounds were evaluated by determining the change of noradrenaline, dopamine and adrenaline levels of the cerebrum, heart, spleen and adrenal gland. The serotonine and 5-hydroxy-indolylacetic acid levels of the cerebrum were also determined. The measurements were performed as follows:
(§3) The animals were decapitated, the cerebrum, heart, spleen and adrenal gland were removed quickly, and the organs were frozen by placing them on a metal sheet cooled with dry ice. The frozen organs were stored for a maximum of one night at -20° C.
(§4) The organs were weighed in the frozen state and then homogenized in 5.0 ml of 0.4 N perchloric acid containing 0.05% of EDTA-Naa and 0.1% of Na2 S2 O5. The homogenized mixtures were centrifuged as described above for the treatment of adrenal gland, the supernatants were decanted, and the pH was adjusted to 8.0±0.1 with a 0.1 molar tris buffer containing 20 g/l of NaOH and 25 g/l of EDTA-Na2. 100 mg of prepared Al2 O3 (Anton et al.: J. Pharm. Ther. 138, 360 (1962)) were added to the samples, and the mixtures were shaken mechanically for 20 minutes. Thereafter the Al2 O3 was washed with 2×10 ml of distilled water, and noradrenaline was eluted with 1.0 ml of 0.05 N perchloric acid. 0.5 ml samples of the eluate were used for the determination of noradrenaline. Noradrenaline was determined according to the method of Shellenberger et al. (Anal. Biochem. 39, 356 (1971)), with the following modifications of the basic procedure: 0.5 ml of 0.1 molar Na-K-phosphate buffer, containing 9 g/l of EDTA-Na2, were added to 0.5 ml of the eluate, and the catecholamines (noradrenaline in the examination of heart and spleen and noradrenaline and dopamine in the examination of the cerebrum) were oxidized with 0.1 ml of a 0.1 N iodine solution in 5% potassium iodide. After exactly 2 minutes, oxidation was stopped by adding 0.25 ml of a 2.5% sodium sulfite solution in 4.4 N aqueous sodium hydroxide to the mixture. 2 minutes after the introduction of the alkaline sulfite solution, 0.2 ml of concentrated acetic acid was added to the samples, whereupon the pH decreased to 4.4 to 4.5. Thereafter the samples were placed for 5 minutes in a drying oven heated to 100° C., and then the samples were cooled with ice water. The fluorescency of noradrenaline was measured with an OPTON spectrophotometer at wavelengths of 380 nm (excitation) and 490 nm (emission).
The brains were homogenized in 10 parts by volume of 0.4 N perchloric acid. The homogenized mixture was stored at -20° C. overnight; thereafter it was thawed and centrifuged as described above. A sample of the homogenized mixture corresponding to 0.5 g of brain was removed, the pH of the sample was adjusted to 8.0±0.1 with 0.1 molar tris-buffer of the above composition, and the sample was processed as described above for the determination of the noradrenaline content of heart and spleen, with the difference that 1.5 ml of 0.05 N perchloric acid was used as the eluting agent. 0.5 ml of the eluate was used to determine the noradrenaline and dopamine contents. The measurement was performed as described above, with the difference that samples of 0.5 ml were applied for the recording of the flourescence of noradrenaline. The residue was placed for 50 minutes into a drying oven heated to 100° C., thereafter the sample was cooled with ice water, and the fluorescence of dopamine was recorded at wavelengths of 325 nm (excitation) and 380 nm (emission).
In a further test series the serotonine and 5-hydroxy-indolylacetic acid contents were also determined, in addition to the determination of the noradrenaline and dopamine content, from the same sample. […]

[4] = test system: serotonine and 5-hydroxy-indolylacetic acid levels of the cerebrum; experiment: Serotonine and 5-hydroxy-indolylacetic acid levels of the cerebrum (brain) in rats, % of controls; assay type: in vivo, male Wistar rats; settings: rat; for response vs control in vivo at 100 mg/kg / response vs control in vivo at 200 mg/kg / response vs control in vivo at 50 mg/kg: ip, i.p.; for response vs control in vivo at 500 mg/kg: po, p.o.
Description: as §2, §3
In a further test series the serotonine and 5-hydroxy-indolylacetic acid contents were also determined, in addition to the determination of the noradrenaline and dopamine content, from the same sample. In this instance the brains were homogenized in 10 ml of 75% ethanol, 0.2 ml of EDTA-Na2 and 5% of ascorbic acid were added to the homogenized mixtures, and the homogenized mixtures were maintained at -20° C. overnight. The mixtures were centrifuged as described above, and 5.0 ml samples of the supernatant were removed. The samples were diluted with equal volumes of distilled water, and poured onto ion exchange columns of 0.5×1.5 cm dimensions, filled with buffered Amberlite CG-30 (200 to 400 mesh). The columns were washed with 5 ml of distilled water followed by 1.0 ml of 0.2 N hydrochloric acid, and the first effluent and the aqueous wash were collected for the determination of 5-hydroxy-indolylacetic acid. Elution was continued with a further 1.2 ml quantity of 0.2 N hydrochloric acid in order to remove noradrenaline, dopamine and serotonine. Samples of 0.3 ml were used for the determinations.
Noradrenaline and dopamine were determined by the method of Shellenberger, modified as described above, whereas serotonine was determined by the method of Curzon et al. (Brit. J. Pharmacol. 39, 653 (1970)). The basic method was modified as follows: A 0.5% solution of ortho-phthal(di)aldehyde in absolute ethanol was diluted with […] hydrochloric acid to 50-fold of its original volume, and 0.6 ml of the resulting 0.01% ortho-phthal(di)aldehyde solution were added immediately to 0.5 ml of the serotonine-containing sample. The sample was placed in a hot water bath for 10 minutes, thereafter cooled with tap water, and the flourescence was recorded at wavelengths of 360 nm (excitation) and 490 nm (emission).
5-Hydroxy-indolylacetic acid was determined from the mixture of the first effluent and the aqueous wash. 10 ml of distilled water and 0.2 ml of concentrated hydrochloric acid were added to the mixture, and the sample was poured onto a 0.8×4.0 cm column filled with Sephadex G-10. The column was washed with 15 ml of 0.1 N hydrochloric acid followed by 1.8 to 2.0 ml of 0.02 N aqueous ammonia, and then 5-hydroxy-indolylacetic acid was eluted with further 2.0 ml of the aqueous ammonia. 0.5 ml samples were used in the measurements, and the determination was performed according to the method of Korf et al. (Biochem. Pharmacol. 20, 659 (1971)).
(§5) In the tests disulfiram, 2,2-dipyridyl, bis(1-methyl-4-homopiperazinyl-thiocarbonyl)-disulfide, sodium diethyldithiocarbamate and N-phenyl-N'-(2-thiazolyl)-thiourea were used as reference substances. The values indicated in Table 1 are the percentages in relation to the amine levels of the controls measured in the same tests (±standard error). The statistical calculations were performed on a TPA/i type computer, using Student's t test.

[5] = test system: dopamine-β-hydroxylase; experiment: Noradrenaline level of heart in rats, % of controls; assay type: in vivo, male Wistar rats; settings: rat, p.o., 500 mg/kg, 4 hours
Description: as §1, §2, §3, §4, §5

[6] = 4 hours, read-out: Brain SE level (percentages in relation to the controls)
[7] = 4 hours, read-out: Brain 5-HIAA level (percentages in relation to the controls)
[8] = 8 hours, read-out: Brain 5-HIAA level (percentages in relation to the controls)
[9] = 8 hours, read-out: Brain SE level (percentages in relation to the controls)

CCCCc1ccc(C(=O)O)nc1 [Fusaric acid, 5-butyl-picolinic acid]
LD50 ([1]; po): 230 ± 25 mg/kg
dopamine-β-hydroxylase inhibiting effects, in words [2]: strong dopamine-β-hydroxylase inhibiting effects

CCN(CC)C(=S)S [diethyl dithiocarbamate]
dopamine-β-hydroxylase inhibiting effects, in words [2]: strong dopamine-β-hydroxylase inhibiting effects

CCN(CC)C(=S)[S-].[Na+] [DDC-Na, sodium diethyldithiocarbamate]
Brain DA level (percentages in relation to the controls) [3]: 120%
Brain NA level (percentages in relation to the controls) [3]: 64.1%

CCNC1=C(C(=S)SSC(=S)C2=C(NCC)CCC2)CCC1 [M-6, 2-(N-ethyl)-amino-cyclopent-1-ene-thiocarboxylic acid-disulfide]
response vs control in vivo at 100 mg/kg [4, 6]: 107 ± 2.2%
response vs control in vivo at 200 mg/kg [4, 7]: 155 ± 8.5%
response vs control in vivo at 200 mg/kg [4, 6]: 112 ± 5.2%
response vs control in vivo at 200 mg/kg [4, 8]: 195 ± 4.8%
response vs control in vivo at 200 mg/kg [4, 9]: 104 ± 7.4%
response vs control in vivo at 500 mg/kg [4, 6]: 118 ± 4.6%
response vs control in vivo at 500 mg/kg [4, 9]: 91.2 ± 0.9%
LD50 ([1]; ip): 1000 to 1500 mg/kg

Cn1cc[nH]c1=S [methimazol]
dopamine-β-hydroxylase inhibiting effects, in words [2]: possess dopamine-β-hydroxylase inhibiting effects

S=C(SSC(=S)C1=C(NC2CCCCC2)CCC1)C1=C(NC2CCCCC2)CCC1 [M-5, 2-(N-cyclohexyl)-amino-cyclopent-1-ene-thiocarboxylic acid disulfide]
response vs control in vivo at 200 mg/kg [4, 7]: 143 ± 8%
response vs control in vivo at 200 mg/kg [4, 6]: 104 ± 7.6%
response vs control in vivo at 200 mg/kg [4, 8]: 178 ± 10.8%
response vs control in vivo at 200 mg/kg [4, 9]: 105 ± 4.5%
LD50 ([1]; ip): > 1000 mg/kg

Dopastine
dopamine-β-hydroxylase inhibiting effects, in words [2]: strong dopamine-β-hydroxylase inhibiting effects

CC(N)Cc1ccccc1 (stereo not shown) [amphetamine]
dopamine-β-hydroxylase inhibiting effects, in words [2]: possess dopamine-β-hydroxylase inhibiting effects

NNc1nncc2ccccc12 [Hydralazine]
LD50 ([1]; ip): 83 mg/kg
dopamine-β-hydroxylase inhibiting effects, in words [2]: possess dopamine-β-hydroxylase inhibiting effects

NOCc1ccccc1 [Benzyloxyamine]
dopamine-β-hydroxylase inhibiting effects, in words [2]: exert dopamine-β-hydroxylase inhibiting effects
duration of dopamine-β-hydroxylase inhibiting effect, in words [2]: only active for a short period

COCCNC1=C(C(=S)SSC(=S)C2=C(NCCOC)CCC2)CCC1 [M-4, 2-(N-methoxyethyl)-amino-cyclopent-1-ene-thiocarboxylic acid disulfide]
response vs control in vivo at 100 mg/kg [4, 7]: 108 ± 9.6%
response vs control in vivo at 100 mg/kg [4, 6]: 113 ± 2.8%
response vs control in vivo at 200 mg/kg [4, 7]: 151%
response vs control in vivo at 200 mg/kg [4, 6]: 113 ± 5.6%
response vs control in vivo at 200 mg/kg [4, 8]: 161%
response vs control in vivo at 200 mg/kg [4, 9]: 106 ± 7.5%
response vs control in vivo at 500 mg/kg [4, 7]: 95.4 ± 6%
response vs control in vivo at 500 mg/kg [4, 6]: 103 ± 5.3%
response vs control in vivo at 500 mg/kg [4, 8]: 106 ± 4.9%
response vs control in vivo at 500 mg/kg [4, 9]: 90.9 ± 6.7%
LD50 ([1]; ip): > 1500 mg/kg
Heart NA level (percentages in relation to the controls) [5]: 86.4 ± 10.1%

NNCc1ccccc1 [benzylhydrazine]
dopamine-β-hydroxylase inhibiting effects, in words [2]: exert dopamine-β-hydroxylase inhibiting effects
duration of dopamine-β-hydroxylase inhibiting effect, in words [2]: only active for a short period

C=CCNC1=C(C(=S)SSC(=S)C2=C(NCC=C)CCC2)CCC1 [M-7, 2-(N-allyl)-amino-cyclopent-1-ene-thiocarboxylic acid-disulfide]
response vs control in vivo at 200 mg/kg [4, 7]: 117 ± 6.5%
response vs control in vivo at 200 mg/kg [4, 6]: 113 ± 8%
response vs control in vivo at 200 mg/kg [4, 8]: 126 ± 10.5%
response vs control in vivo at 200 mg/kg [4, 9]: 108%
LD50 ([1]; ip): > 1000 mg/kg

NC1=C(C(=S)SSC(=S)C2=C(N)CCC2)CCC1 [M-1]
response vs control in vivo at 200 mg/kg [4, 7]: 152%
response vs control in vivo at 200 mg/kg [4, 6]: 115 ± 4.7%
response vs control in vivo at 200 mg/kg [4, 8]: 125 ± 10.7%
response vs control in vivo at 200 mg/kg [4, 9]: 111 ± 5.1%
LD50 ([1]; ip): ~800 mg/kg

CN1CCCN(C(=S)SSC(=S)N2CCCN(C)CC2)CC1 [FLA-63, bis(1-methyl-4-homopiperazinyl)-thiocarbonyl-disulfide]
response vs control in vivo at 50 mg/kg [4, 7]: 134%
response vs control in vivo at 50 mg/kg [4, 6]: 124%
LD50 ([1]; ip): 150 mg/kg
dopamine-β-hydroxylase inhibition in vivo, in words ([2]; in vivo conditions): one of the most potent dopamine-β-hydroxylase inhibitors under in vivo conditions

O=C(CO)c1coc(=O)c2c(O)cccc12 [Oosponol]
LD50 ([1]; ip): 40 mg/kg
LD50 ([1]; po): 280 mg/kg
dopamine-β-hydroxylase inhibiting effects, in words [2]: strong dopamine-β-hydroxylase inhibiting effects

CCCCNC1=C(C(=S)SSC(=S)C2=C(NCCCC)CCC2)CCC1 [M-2, 2-(N-butyl)-amino-cyclopent-1-ene-thiocarboxylic acid-disulfide]
response vs control in vivo at 200 mg/kg [4, 6]: 97.6%
response vs control in vivo at 200 mg/kg [4, 9]: 97.3 ± 11.3%

— patent US4179467A, “Dopamine hydroxylase inhibiting 2-amino-cyclopent-1-ene-1-thiocarboxylic acid-disulfides” (Richter Gedeon Vegyeszeti Gyar Rt., priority 1976, dated 1979)
